For experiment [1], the target named is T1, Bruton's tyrosine kinase (Btk) (Bos taurus, UniProt Q3ZC95).
T1 construct: PH-TH module (residues 1 to 172)
Kind of experiment: ITC. In kind it is binding.

For experiment [2], the target named is T2, Bruton's tyrosine kinase (Btk) (Bos taurus, UniProt Q3ZC95, N24D/R28C).
T2 construct: PH-TH module (residues 1 to 172)
The experiment in a line: ITC with the canonical-site mutant (also printed as R28C/N24D and R28C/N24E). In kind it is binding.

Experiment [3] addresses T1, Bruton's tyrosine kinase (Btk). Kind of experiment: ITC; crystal structure at […] Å; also activates full-length Btk (EC50 around […]). In kind it is binding. In general terms: Isothermal titration calorimetry measures the heat released or taken up as one component is titrated into another.
Experiment [4] deals with PH-TH module of bovine Btk (residues 1 to 172) (bovine) (UniProt Q3ZC95). The experiment in a line: not stated; preliminary studies; dimerization of the PH-TH module induced by IP6; dimer to monomers.
Experiment [5] deals with T3, Bruton's tyrosine kinase (Btk) (Bos taurus, UniProt Q3ZC95, DEL171-383/L542M/S543T/V555T/R562K/S564A/P565S).
T3 construct: PH-TH-kinase construct (residues 1 to 170 connected to residues 384 to 659)
In kind it is binding.

For experiment [6], the target named is Src-like module of mouse Btk (SH3-SH2-kinase module, residues 214 to 659) (mouse) (UniProt P35991). Kind of experiment: cross-linking; peak B; disuccinimidyl glutarate and PAGE analysis; results not shown.
Experiment [7] shares this target. The experiment in a line: SEC; peak B from mono-Q, HiPrep S-200 16/60, 25 mM Tris·Cl pH 8.5, 25 mM NaCl, 5 mM DTT, 4°C. Background: Size exclusion chromatography separates by hydrodynamic size, large species first.

Some results are limits rather than exact numbers.

T1 sequence (Q3ZC95 1-172): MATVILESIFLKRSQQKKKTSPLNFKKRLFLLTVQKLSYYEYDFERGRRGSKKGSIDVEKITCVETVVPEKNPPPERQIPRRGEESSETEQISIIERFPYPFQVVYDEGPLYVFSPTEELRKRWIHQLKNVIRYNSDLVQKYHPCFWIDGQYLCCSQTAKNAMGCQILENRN
T3 sequence (Q3ZC95 entry or part of it DEL171-383/L542M/S543T/V555T/R562K/S564A/P565S): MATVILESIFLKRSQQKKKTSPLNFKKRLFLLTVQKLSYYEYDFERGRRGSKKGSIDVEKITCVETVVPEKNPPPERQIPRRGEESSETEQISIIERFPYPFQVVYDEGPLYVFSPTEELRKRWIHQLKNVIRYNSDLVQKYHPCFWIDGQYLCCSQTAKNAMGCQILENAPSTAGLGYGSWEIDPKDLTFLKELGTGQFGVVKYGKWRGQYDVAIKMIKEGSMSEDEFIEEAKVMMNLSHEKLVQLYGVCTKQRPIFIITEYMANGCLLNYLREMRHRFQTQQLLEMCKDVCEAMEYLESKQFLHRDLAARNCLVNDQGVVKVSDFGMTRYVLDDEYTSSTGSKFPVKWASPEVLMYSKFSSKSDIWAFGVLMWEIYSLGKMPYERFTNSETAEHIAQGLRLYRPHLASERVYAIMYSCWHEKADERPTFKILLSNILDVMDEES
T2 sequence (Q3ZC95 1-172 N24D/R28C): as the sequence (Q3ZC95 1-172) above, with N24D, R28C counted along it

The term Kd denotes the constant that tells how readily two partners part at equilibrium. In the case of `O=P(O)(O)O[C@H]1[C@H](O)[C@@H](OP(=O)(O)O)[C@H](OP(=O)(O)O)[C@@H](OP(=O)(O)O)[C@H]1O` [IP4, inositol tetrakisphosphate], the dissociation constant Kd in experiment [1] amounted to 26 ± 6 nM. On to `O=P(O)(O)O[C@H]1[C@H](OP(=O)(O)O)[C@@H](OP(=O)(O)O)[C@H](OP(=O)(O)O)[C@@H](OP(=O)(O)O)[C@H]1OP(=O)(O)O` [IP6, inositol hexakisphosphate], for which the Kd in experiment [2] was 4760 ± 700 nM; in experiment [3], 238 ± 32 nM. In experiment [4], “PH-TH module of bovine Btk (residues 1 to 172) (from UniProt Q3ZC95 1-172) (domain or fragment)” registered a Kd of more than 100000 nM. As for `Cc1c(NC(=O)c2ccc(C(C)(C)C)cc2)cccc1-c1cn(C)c(=O)c(Nc2ccc(C(=O)N3CCOCC3)cc2)n1` [CGI1746], in experiment [5], the “crystal structure at 1.7 Å” value is given as “structure of the PH-TH-kinase with a bound ATP-competitive inhibitor (CGI1746”. In general, stoichiometry N refers to the number of molecules, sites or subunits per partner or assembly. With “Src-like module of mouse Btk (SH3-SH2-kinase module, residues 214 to 659) (from UniProt P35991 214-659) (domain or fragment)”, the stoichiometry N in experiment [6] and in experiment [7] was 2 in each case.
